In PubChem BioAssay (NCI):
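Interpolation was linear, between the two tested concentrations surrounding the appropriate level; five concentrations were tested over 48 hours in 96-well plates. GI50: concentration for 50% inhibition of growth. At the TGI there is no net growth.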

Experiments:
Test in all cases: inhibition of tumour cell growth, NCI panel, 48 h
786-0 renal = system: 786-0 renal
A498 renal = system: A498 renal
A549 NSCLC = system: A549 NSCLC
ACHN renal = system: ACHN renal
BT-549 breast = system: BT-549 breast
CAKI-1 renal = system: CAKI-1 renal
CCRF-CEM leukemia = system: CCRF-CEM leukemia
COLO 205 colon = system: COLO 205 colon
DU-145 prostate = system: DU-145 prostate
EKVX NSCLC = system: EKVX NSCLC
HCT-116 colon = system: HCT-116 colon
HCT-15 colon = system: HCT-15 colon
HL-60(TB) leukemia = system: HL-60(TB) leukemia
HOP-62 NSCLC = system: HOP-62 NSCLC
HOP-92 NSCLC = system: HOP-92 NSCLC
HS 578T breast = system: HS 578T breast
IGROV1 ovarian = system: IGROV1 ovarian
KM12 colon = system: KM12 colon
LOX IMVI melanoma = system: LOX IMVI melanoma
M14 melanoma = system: M14 melanoma
MALME-3M melanoma = system: MALME-3M melanoma
MCF7 breast = system: MCF7 breast
MDA-MB-231 breast = system: MDA-MB-231 breast
MDA-MB-435 = system: MDA-MB-435
MOLT-4 leukemia = system: MOLT-4 leukemia
NCI-H226 lung = system: NCI-H226 lung
NCI-H23 lung = system: NCI-H23 lung
NCI-H460 lung = system: NCI-H460 lung
NCI-H522 lung = system: NCI-H522 lung
NCI/ADR-RES ovarian = system: NCI/ADR-RES ovarian
OVCAR-3 ovarian = system: OVCAR-3 ovarian
OVCAR-5 ovarian = system: OVCAR-5 ovarian
OVCAR-8 ovarian = system: OVCAR-8 ovarian
PC-3 prostate = system: PC-3 prostate
RPMI-8226 leukemia = system: RPMI-8226 leukemia
RXF 393 renal = system: RXF 393 renal
SF-268 CNS = system: SF-268 CNS
SF-295 CNS = system: SF-295 CNS
SF-539 CNS = system: SF-539 CNS
SK-MEL-2 melanoma = system: SK-MEL-2 melanoma
SK-MEL-5 melanoma = system: SK-MEL-5 melanoma
SK-OV-3 ovarian = system: SK-OV-3 ovarian
SN12C renal = system: SN12C renal
SNB-19 CNS = system: SNB-19 CNS
SW-620 colon = system: SW-620 colon
T-47D breast = system: T-47D breast
TK-10 renal = system: TK-10 renal
U251 CNS = system: U251 CNS
UACC-257 melanoma = system: UACC-257 melanoma
UACC-62 melanoma = system: UACC-62 melanoma
UO-31 renal = system: UO-31 renal

`COc1cc2c(/C=C3/C(=O)Nc4ccccc43)c(Cl)n(Cc3ccccc3)c2cc1C` showed a GI50 (786-0 renal) of over 100 µM, a TGI (786-0 renal) of over 100 µM and a GI50 (A498 renal) of over 100 µM. It also gave a TGI (A498 renal) of over 100 µM, a GI50 (A549 NSCLC) of over 100 µM and a TGI (A549 NSCLC) of over 100 µM. It also gave a GI50 (ACHN renal) of over 100 µM, a TGI (ACHN renal) of over 100 µM and a GI50 (BT-549 breast) of over 100 µM. It also gave a TGI (BT-549 breast) of over 100 µM, a GI50 (CAKI-1 renal) of over 100 µM and a TGI (CAKI-1 renal) of over 100 µM. It also gave a GI50 (CCRF-CEM leukemia) of 29.1 µM, a TGI (CCRF-CEM leukemia) of over 100 µM and a GI50 (COLO 205 colon) of 31.8 µM. The TGI (COLO 205 colon) was over 100 µM, the GI50 (DU-145 prostate) was over 100 µM and the TGI (DU-145 prostate) was over 100 µM. It also gave a GI50 (EKVX NSCLC) of over 100 µM, a TGI (EKVX NSCLC) of over 100 µM and a GI50 (HCT-116 colon) of over 100 µM. For the same molecule, the TGI (HCT-116 colon) was over 100 µM, the GI50 (HCT-15 colon) was over 100 µM and the TGI (HCT-15 colon) was over 100 µM. For the same molecule, the GI50 (HL-60(TB) leukemia) was 6.61 µM, the TGI (HL-60(TB) leukemia) was over 100 µM and the GI50 (HOP-62 NSCLC) was over 100 µM. The TGI (HOP-62 NSCLC) was over 100 µM, the GI50 (HOP-92 NSCLC) was over 100 µM and the TGI (HOP-92 NSCLC) was over 100 µM. The GI50 (HS 578T breast) was over 100 µM, the TGI (HS 578T breast) was over 100 µM and the GI50 (IGROV1 ovarian) was over 100 µM. For the same molecule, the TGI (IGROV1 ovarian) was over 100 µM, the GI50 (KM12 colon) was over 100 µM and the TGI (KM12 colon) was over 100 µM. It also gave a GI50 (LOX IMVI melanoma) of over 100 µM, a TGI (LOX IMVI melanoma) of over 100 µM and a GI50 (M14 melanoma) of over 100 µM. It also gave a TGI (M14 melanoma) of over 100 µM, a GI50 (MALME-3M melanoma) of over 100 µM and a TGI (MALME-3M melanoma) of over 100 µM. For the same molecule, the GI50 (MCF7 breast) was over 100 µM, the TGI (MCF7 breast) was over 100 µM and the GI50 (MDA-MB-231 breast) was over 100 µM. The TGI (MDA-MB-231 breast) was over 100 µM, the GI50 (MDA-MB-435) was 64.4 µM and the TGI (MDA-MB-435) was over 100 µM. For the same molecule, the GI50 (MOLT-4 leukemia) was 6.05 µM, the TGI (MOLT-4 leukemia) was over 100 µM and the GI50 (NCI-H226 lung) was over 100 µM. For the same molecule, the TGI (NCI-H226 lung) was over 100 µM, the GI50 (NCI-H23 lung) was over 100 µM and the TGI (NCI-H23 lung) was over 100 µM. The GI50 (NCI-H460 lung) was over 100 µM, the TGI (NCI-H460 lung) was over 100 µM and the GI50 (NCI-H522 lung) was over 100 µM. For the same molecule, the TGI (NCI-H522 lung) was over 100 µM, the GI50 (NCI/ADR-RES ovarian) was over 100 µM and the TGI (NCI/ADR-RES ovarian) was over 100 µM. For the same molecule, the GI50 (OVCAR-3 ovarian) was over 100 µM, the TGI (OVCAR-3 ovarian) was over 100 µM and the GI50 (OVCAR-5 ovarian) was over 100 µM. The TGI (OVCAR-5 ovarian) was over 100 µM, the GI50 (OVCAR-8 ovarian) was over 100 µM and the TGI (OVCAR-8 ovarian) was over 100 µM. For the same molecule, the GI50 (PC-3 prostate) was 87.9 µM, the TGI (PC-3 prostate) was over 100 µM and the GI50 (RPMI-8226 leukemia) was 21.1 µM. The TGI (RPMI-8226 leukemia) was over 100 µM, the GI50 (RXF 393 renal) was over 100 µM and the TGI (RXF 393 renal) was over 100 µM. The GI50 (SF-268 CNS) was over 100 µM, the TGI (SF-268 CNS) was over 100 µM and the GI50 (SF-295 CNS) was over 100 µM. For the same molecule, the TGI (SF-295 CNS) was over 100 µM, the GI50 (SF-539 CNS) was over 100 µM and the TGI (SF-539 CNS) was over 100 µM. The GI50 (SK-MEL-2 melanoma) was over 100 µM, the TGI (SK-MEL-2 melanoma) was over 100 µM and the GI50 (SK-MEL-5 melanoma) was 42.2 µM. The TGI (SK-MEL-5 melanoma) was over 100 µM, the GI50 (SK-OV-3 ovarian) was over 100 µM and the TGI (SK-OV-3 ovarian) was over 100 µM. For the same molecule, the GI50 (SN12C renal) was over 100 µM, the TGI (SN12C renal) was over 100 µM and the GI50 (SNB-19 CNS) was over 100 µM. It also gave a TGI (SNB-19 CNS) of over 100 µM, a GI50 (SW-620 colon) of over 100 µM and a TGI (SW-620 colon) of over 100 µM. The GI50 (T-47D breast) was 41.9 µM, the TGI (T-47D breast) was over 100 µM and the GI50 (TK-10 renal) was over 100 µM. For the same molecule, the TGI (TK-10 renal) was over 100 µM, the GI50 (U251 CNS) was over 100 µM and the TGI (U251 CNS) was over 100 µM. For the same molecule, the GI50 (UACC-257 melanoma) was over 100 µM, the TGI (UACC-257 melanoma) was over 100 µM and the GI50 (UACC-62 melanoma) was over 100 µM. For the same molecule, the TGI (UACC-62 melanoma) was over 100 µM, the GI50 (UO-31 renal) was 83.4 µM and the TGI (UO-31 renal) was over 100 µM.
